Experiment: In vitro metabolic stability study in human hepatocytes
Type: in vitro ADME
Conditions: for In vitro CLint / Rate constant k: 0.5 uM, human cryopreserved hepatocytes, 37° C.; for Rate constant k: up to 180 min; for clearance in human hepatocytes (in words): compared to pyridine comparator compounds RE11 and RE13
Description: The objective of this study was to determine metabolic stability in mixed gender human cryopreserved hepatocytes. Testosterone and 7-Hydroxycoumarin were used as positive controls for Phase I and Phase II metabolism, respectively.
Incubation medium was prepared by combining William's medium E, HEPES buffer 1 M and L-glutamine 200 mM in the following proportions: 88%, 10% and 2%, respectively (440 mL, 50 mL and 10 mL, respectively). The medium obtained was bubbled with carbogen (5% CO2, 95% O2) for 30 minutes prior to use. Cryopreserved hepatocytes were thawed and suspended in incubation medium pre-warmed at 37° C. Cells were centrifuged, re-suspended in medium and counted by means of a haemocytometer (Burker's chamber). Cell viability was measured using the Trypan Blue exclusion test.
Test compounds were separately dissolved in DMF to obtain 50 mM stock solutions that were further diluted in water/acetonitrile 50/50 (v/v) to obtain the corresponding 50 uM working solutions. Testosterone and 7-Hydroxy-Coumarin were dissolved in DMF in order to obtain a 50 mM Testosterone solution and 5 mM 7-Hydroxy-Coumarin solution. These solutions were then diluted in the incubation medium in order to obtain a 1 mM Testosterone working solution and a 500 uM 7-Hydroxy-Coumarin working solution.
10 μL of each working solution, i.e. 50 uM test compound, 1 mM Testosterone and 500 uM of 7-Hydroxy-Coumarin were added to 990 μL of 0.5×10^6 cell suspensions in order to obtain the final concentrations of 0.5 uM, 10 uM and 5 uM, respectively. The concentration of the organic solvent in each incubation was constant and <1% (v/v).
Test compounds were separately incubated at 0.5 uM for 0, 5, 10, 15, 20, 30, 45, 60, 90, 120, 150 and 180 min (12 time points) with mixed gender human cryopreserved hepatocytes at 37° C. in a 24 well plate. At each time point a robotic handling processor aspirated 50 μL of incubation mixture from each well and dispensed it into a refrigerated 96 well plate, containing 100 μL of acetonitrile with the corresponding internal standard 150 ng/mL to stop the reaction. Then an aliquot of water (120 uL) was added to equilibrate the organic solvent content at 37%. Samples were centrifuged (ca. 3500 g for 10 minutes) prior to LC MS/MS analysis.
Metabolic stability was calculated from the peak area ratio of the remaining test compound with internal standard versus time.
The intrinsic clearance (CLint) was determined from the first order elimination constant k (min^−1) (obtained from GraphPad by plotting the natural logarithm of the peak area ratio of the remaining test item with internal standard versus time), using the actual volume of the incubation V (mL), the amount of hepatocytes in the incubation M (million cells) and the hepatocellularity number per g liver Hn (120 for human).
Values for CLint were expressed as mL/min/g liver.

| SMILES | In vitro CLint [mL/min/g liver] | Rate constant k [min⁻¹] | clearance in human hepatocytes (in words) |
| --- | --- | --- | --- |
| CC[C@H]1NC(=O)N(c2cnc(Oc3ccc(C)c4c3C3(CC3)CO4)cn2)C1=O [Example 9, (5R)-5-ethyl-3-[5-(7-methylspiro[2H-benzofuran-3,1′-cyclopropane]-4-yl)oxypyrazin-2-yl]imidazolidine-2,4-dione] | 1.03 | 0.004 | low clearance |
| CC[C@H]1NC(=O)N(c2cnc(Oc3cccc4c3C3(CC3)CO4)cn2)C1=O [Example 10, (5R)-5-ethyl-3-(5-spiro[2H-benzofuran-3,1′-cyclopropane]-4-yloxypyrazin-2-yl)imidazolidine-2,4-dione] | 0.70 | 0.003 | low clearance |
| Cc1ccc(Oc2ncc(N3C(=O)NC(C)(C)C3=O)cn2)c2c1OCC21CC1 [RE5, reference compound] | 0.31 | 0.002 | – |
| CC[C@H]1NC(=O)N(c2ccc(Oc3ccc(C)c4c3C3(CC3)CO4)nc2)C1=O [RE11, reference compound] | 3.58 | 0.02 | – |
| CC[C@H]1NC(=O)N(c2ccc(Oc3cccc4c3C3(CC3)CO4)nc2)C1=O [RE13, (5R)-5-ethyl-3-(6-spiro[2H-benzofuran-3,1′-cyclopropane]-4-yloxy-3-pyridyl)imidazolidine-2,4-dione, reference compound] | 2.16 | 0.009 | – |
